The subject of one data set is late-stage cancers. The settings on record: patients with late-stage cancers (Pant et al, 2014); cited from earlier work.
For data set [1] the following is noted: Brown et al, 2008; cited from earlier work.
The test system of data set [2] is colo-rectal cancer cell lines (eg. HT-29, CaCo-2). The settings on record: HT-29, CaCo-2 (Alvero et al, 2008); cited from earlier work.
Data set [3] relates to primary prostate cancer. Put plainly: Rectal idronoxil in olive oil (high oleic acid) base in a prostate cancer patient, PSA follow-up. Type of data set: in vivo, human. The method, then: Patient receiving chemical castration therapy presenting with undetectable testosterone and receiving Zolodex for primary prostate cancer (PSA=6.0). Patient received 400 mg idronoxil daily in olive oil base rectally for 3 weeks.

The subject of data set [4] is primary prostate cancer. Put plainly: Cytotoxic monotherapy with idronoxil suppository in theobroma oil base in prostate cancer patients, PSA follow-up. Type of data set: in vivo, human. The method, then:
Patient receiving chemical castration therapy presenting with undetectable testosterone and receiving Zolodex for primary prostate cancer has a PSA doubling time of 6 weeks (PSA=9.6). Patient received suppository comprising 400 mg idronoxil in theobroma oil suppository base daily for 4 weeks. […] Suppository treatment was stopped for a period of 2 weeks and then continued for 2 weeks.
Patient receiving chemical castration therapy having urinary obstruction and pelvic discomfort receiving 400 mg idronoxil suppository formulation for primary prostate cancer (PSA=19). Patient received suppository comprising 800 mg idronoxil in theobroma oil suppository based daily in 2 week courses for 15 months. The suppository formulation slowed tumour growth to a doubling time of 6 months (PSA=67 at completion of 15 month therapy).

In data set [5] the test system is late-stage ovarian cancer. The settings on record: Phase 3, late-stage ovarian cancer, 142 women recruited (Fotopoulou et al. 2014); cited from earlier work.
Data set [6] concerns wide range of cancer cell types. The settings on record: fold more potent than genistein; cited from earlier work.
The conditions of data set [7]: intravenously administered, cyclodextrin carrier (Howes et al, 2011); cited from earlier work.
Data set [8] relates to primary prostate cancer. Description: Oral administration of idronoxil to a prostate cancer patient, PSA follow-up. Type of data set: in vivo, human. More on the design: PSA at completion of 2 week period: unit not given here. The method, then: Patient receiving chemical castration therapy presenting with undetectable testosterone and receiving Zolodex for primary prostate cancer (PSA=3.4). Patient received 400 mg idronoxil daily by oral administration, increasing to 800 mg daily for 2 weeks. PSA at completion of 2 week period=6.7 indicating doubling time of 1 month.

[9] abbreviates: 400 mg theobroma oil suppository, after stop for 2 weeks, then continued for 2 weeks.
Where [10] appears, read: suppository 800 mg in theobroma oil base daily in 2 week courses for 15 months, PSA at start 19.

Turning to `Oc1ccc(C2COc3cc(O)ccc3C2c2ccc(O)cc2)cc1` (centres unmarked) [ME-143, 4,4′-(7-hydroxychroman-3,4-diyl)diphenol], in the data set with late-stage cancers, the clinical benefit entry was “failed to show any clinical benefit”.

For `Oc1ccc(C2=Cc3ccc(O)cc3OC2)cc1` [idronoxil, 2H-1-Benzopyran-7-0,1,3-(4-hydroxyphenyl)], the “susceptibility to Phase 1 metabolic processes” value in [1] is “not being particularly susceptible to Phase 1 metabolic processes”. In data set [2], the “sensitivity of colo-rectal cancer cell lines” value is recorded as “insensitivity”. Moreover, the “tumour growth during treatment” value in the data set with primary prostate cancer [3] (400 mg daily in olive oil base rectally) is recorded as “continual growth of tumour during the treatment period”. In addition, the “PSA at completion of 2 week period” value in the data set on primary prostate cancer [3] (400 mg daily in olive oil base rectally for 3 weeks, PSA at start 6.0) was determined as 9.6; in the data set on primary prostate cancer [8] (oral, 400 mg daily increasing to 800 mg daily for 2 weeks, chemical castration therapy, PSA at start 3.4), 6.7. Besides, the PSA score was determined as 10 in the data set on primary prostate cancer [4] (setting [9]) and 10 in the data set on primary prostate cancer [4] (suppository 400 mg in theobroma oil base daily for 4 weeks, PSA at start 9.6, doubling time 6 weeks). In addition, the “effect on tumour growth” value in the data set on primary prostate cancer [4] (setting [9]) is listed as “inhibitory effect on tumour growth”; in the data set on primary prostate cancer [4] (suppository 400 mg in theobroma oil base daily for 4 weeks), “effectively stopped tumour growth”. The “PSA at completion of 15 month therapy” value with primary prostate cancer [4] (setting [10]) was 67. In addition, in the data set on primary prostate cancer [4] (setting [10]), the tumour doubling time was 6 months. In [5], the clinical benefit entry is recorded as “lack of any clinical benefit”. Also, the “potency as an anti-cancer agent compared to genistein” value in [6] was “about 10 ×”. Besides, the conjugation entry in [7] is listed as “completely conjugated”. The “effect on tumour doubling time” value in the data set on primary prostate cancer [8] (oral administration) was “failed to reduce tumour doubling time”. This compound also yielded a PSA doubling time with primary prostate cancer [8] (oral, 400 mg daily increasing to 800 mg daily for 2 weeks) of 1 month.
